One block for each compound: values may come before it.
What was measured:
[1] = Cytoprotection against DOX-induced toxicity, CCK-8 assay; assay type: cell-based; conditions: rat, H9c2 cells; DOX 5 μM, 24 h, CCK-8; read-out: cell viability, DOX alone
Description: (§1) We evaluated the cytoprotective effects of RSSH precursors against DOX-induced cardiotoxicity in H9c2 cardiomyoblasts. First, we assessed the cytotoxicity of the RSSH donors (AST-2, APT-1, AST-2-TPP, and APT-1-TPP) using the CCK-8 assay.[24] […] To evaluate cytoprotection, H9c2 cells were pretreated with RSSH donors for 4 h, followed by 24 h co-treatment with DOX (5 μM). As expected, DOX alone reduced cell viability to ca. 50% (Figure 4a). […] Although both compounds were protective, no enhancement of potency was observed upon TPP conjugation. […] A distinctive feature of our study is the direct comparison between mitochondria-targeted and non-targeted RSSH donors. […] TPP conjugation only modestly enhances the cytoprotective effects of RSSH donors under our experimental conditions. This outcome may reflect the intrinsic high efficacy of non-targeted RSSH donors, thereby limiting the additional benefit of mitochondrial targeting.
(§2) Figure 4. Protective effects of RSSH donors against DOX-induced cytotoxicity in H9c2 cells. Cells were pretreated with RSSH donors for 4 h, followed by exposure to DOX (5 μM) for an additional 24 h. Cell viability was assessed using the cell counting Kit-8 (CCK-8) assay. Results are expressed as mean ± SEM, n = 3; *P < 0.05, **P < 0.01, ***P < 0.001, ****P < 0.0001. Ctl = vehicle-treated group (0.01% DMSO in medium). […]
(§3) Cytoprotective Effects of RSSH Donors against Doxorubicin Toxicity
(§4) Cytoprotective studies were performed as previously described.[8] Briefly, H9c2 cells, HepG2 cells, MDA-MB-468 cells, and MCF-7 cells were seeded at a density of 7 x 10^3 cells/well. […] Additionally, in the vehicle control group, cells were treated with medium (DMEM with 10% FBS) containing 0.01% DMSO only. The cells were then further incubated for an additional 4 h before being treated with DOX (10 μL/well, with final concentration of 5 μM). After a 24 h co-incubation with DOX, each well was carefully washed three times with PBS (pH 7.4) and 100 μL o f F B S-free medium containing 10% v/v CCK-8 (Dojindo) was added. The plates were then incubated for 1-2 h before measuring absorbance at […]
(§5) The relative % cell viability was calculated as 100 times the ratio of Abs450 (RSSH donor + DOX-exposed) to Abs450 (vehicle, non-DOX-exposed). Each treatment condition was performed in 6 technical replicates per biological replicate, and the experiment was independently repeated three times (n = 3 biological replicates). Data are presented as mean ± SEM. […]

H9c2 cells [2] = experiment: Mitochondrial membrane potential (TMRM) under DOX; assay type: cell-based; conditions: DOX 5 μM, 24 h, TMRM
Description: (§6) Figure 6. a) Basal sulfane sulfur (SS) levels in H9c2 cardiomyocyte, MDA-MB-468, MCF-7, and HepG2 cell lines as detected by SSP4 fluorescence. b) Representative images and c) basal levels of mitochondrial membrane potential (MMP) in H9c2 and cancer cells (MDA-MB-468, MCF-7, and HepG2). d) Impact of APT-1 (25 μM) or APT-1-TPP (25 μM) on MMP in DOX (5 μM)-treated (d) H9c2 and e) HepG2 cells. Impact of APT-1 (25 μM) and APT-1-TPP (25 μM) on ATP levels in DOX (5 μM)-treated f) H9c2 and g) HepG2 cells. Results are expressed as mean ± SEM, n = 3–6; *P < 0.05, **P < 0.01, ***P < 0.001, ****P < 0.0001. Significances in (a) and (c) are presented with respect to H9c2 cells.
(§7) We then examined how RSSH donors influence MMP during DOX exposure. As expected, DOX alone induced mitochondrial depolarization in H9c2 cells, reducing MMP to ca. 50% of control (Figure 6d). […] To complement these observations, we quantified intracellular ATP levels as a functional readout of mitochondrial activity. […]
Mitochondrial Membrane Potential Measurements
Mitochondrial membrane potential was measured using Image-iT™ TMRM Reagent (Cat#I34361, Invitrogen, USA) according to the manufacturer's protocols. […]
The cells were incubated for an additional 24 h. After completion of treatment, cells were washed with a warm clear DMEM medium (with 10% FBS) and incubated in culture media containing TMRM (working solution 100 nM) for 30 min at 37 °C. Cells were then washed with a warm clear FBS-free DMEM medium (3 times) before imaging. Images were obtained with Zeiss LSM 800 with AiryScan Confocal (λex = 548 nm, λem = 573 nm). During each experiment, 6 field images were obtained for each experimental group. Images were analyzed using Image J software, and all cells in each image were selected for fluorescence intensity measurement (cell-free space was also measured as blank). H9c2 signal intensity was set to 100% and signal intensity for all the other cell lines was shown as a percentage of that of H9c2.
The experiments were independently repeated three times (n = 3 biological replicates). Data are […]
Figure S24. Representative TMRM images for mitochondrial membrane potential (MMP) in H9c2 and HepG2 cells with APT-1 and APT-1-TPP treatment under DOX stress. Ctl = vehicle (medium with 0.01% […]
(1 picture or pasted object on this page, not shown here)

H9c2 cells [3] = experiment: Intracellular ATP levels (CellTiter-Glo) under DOX; assay type: cell-based; conditions: DOX 5 μM, 24 h
Description: as §6, §7
Briefly, H9c2 cells and HepG2 cells were seeded in 96-well white-bottom plate (Alkali Scientific, SKU:TPW9096, TC-treated) at 5000 cells/well. After treatment (Ctrl, 5 μM DOX alone, 4 h pretreatment of 25 μM APT-1 + 24 h cotreatment with 5 μM DOX, and 4 h pretreatment of 25 μM APT-1-TPP + 24 h cotreatment with 5 μM DOX, in clear DMEM medium with 10% FBS), cells were equilibrated at rt for 30 min before CellTiter-Glo® reagent was added to each well. Plates were then placed on an orbital shaker for 2 min and incubated at rt for another 20 min.
Chemiluminescence was measured using Tecan plate reader (SPARK Part No. 30124664 Version 1.7, serial No. 1909010319). Cellular AT P concentration was calculated based on the AT P calibration curve and normalized to cell count. […] Each treatment condition was performed in 6 technical replicates per biological replicate, and the experiment was independently repeated three times (n = 3 biological replicates).
Data are presented as mean ± SEM. […]

H9c2 cells [4] = experiment: Cytoprotection against DOX-induced toxicity, CCK-8 assay; assay type: cell-based; conditions: 4 h pretreatment, then 24 h co-treatment with DOX 5 μM
Description: as §1, §2, §3, §4, §5

[5] = Aqueous stability of RSSH precursors in PBS; assay type: physicochemical; conditions: PBS pH 7.4, 37 °C, over 9 h
Description: We synthesized AST-2 as an esterase-sensitive RSSH donor via reaction of N-acetylpenicillamine methyl ester with methoxycarbonyl sulfenyl chloride in dichloromethane at 0 °C, affording the product in 72% yield (see Scheme S1). We first evaluated the aqueous stability of AST-2 in phosphate-buffered saline (PBS, pH 7.4) at 37 °C.
APT-1 was synthesized in 93% overall yield via a one-pot two-step sequence: N-acetylpenicillamine methyl ester was reacted with chlorocarbonylsulfenyl chloride to afford an S-perthiocarbonyl chloride intermediate, which was subsequently treated with 2-acetoxy-N-methylethan-1-aminium chloride in the presence of triethylamine (see Supporting Information).
We first evaluated the aqueous stability of the mitochondria-targeted analogs AST-2-TPP and APT-1-TPP. […] APT-1-TPP similarly retained excellent stability, with < 5% degradation over 41 h (Figure S1D).

ATP level, DOX alone (H9c2 cells [3]): significantly depleted ATP
SMILES: COc1cccc2c1C(=O)c1c(O)c3c(c(O)c1C2=O)C[C@@](O)(C(=O)CO)C[C@@H]3O[C@H]1C[C@H](N)[C@H](O)[C@H](C)O1 [DOX, Doxorubicin]
viability at 24 h, 5 µM [1]: ~50% | MMP, DOX alone (H9c2 cells [2]): ca. 50 % of control

SMILES: COC(=O)[C@@H](NC(C)=O)C(C)(C)S [Pen-SH, N-acetyl penicillamine methyl ester, reference compound]
protection against DOX-induced cytotoxicity (H9c2 cells [4]): failed to mitigate DOX-induced cytotoxicity

decomposition (aqueous stability) [5]: complete degradation
SMILES: COC(=O)C(NC(C)=O)C(C)(C)SSC(=O)Oc1ccccc1 (centres unmarked) [AST-1, reference compound]

— paper PMC13224100, “Esterase-Responsive Mitochondria-Targeted Hydropersulfide Donors Mitigate Doxorubicin Cardiotoxicity While Preserving Anticancer Activity” (Angewandte Chemie (International ed. in English), 2025)
